In ChEMBL document CHEMBL3217667, “Extended side chain analogues of 8-aminoquinolines: Synthesis and evaluation of antiprotozoal, antimicrobial, -hematin inhibition, and cytotoxic activities” (Medchemcomm, 2011):
Values after ≈ are worked out from the molar mass of the structure shown. Active and inactive are the calls of the source. The rule behind the calls is not given here.

Assays:
[1] = Selectivity index, ratio of IC50 for African green monkey Vero cells to IC50 for chloroquine-resistant Plasmodium falciparum W2; assay type: toxicity, cell-based; conditions: read-out: Ratio IC50
[2] = Selectivity index, ratio of IC50 for African green monkey Vero cells to IC50 for chloroquine-sensitive Plasmodium falciparum D6; assay type: toxicity, cell-based; conditions: read-out: Ratio IC50
[3] = test system: LLC-PK1; experiment: Cytotoxicity against pig LLC-PK1 cells by neutral red uptake assay; assay type: cell-based; conditions: Sus scrofa
[4] = test system: BT-549; experiment: Cytotoxicity against human BT549 cells by neutral red uptake assay; assay type: cell-based
[5] = test system: Pichia kudriavzevii; experiment: Antifungal activity against Candida krusei by broth microdilution assay; assay type: functional, organism-based
[6] = test system: Pseudomonas aeruginosa; experiment: Antibacterial activity against Pseudomonas aeruginosa; assay type: functional, organism-based
[7] = test system: Plasmodium falciparum; experiment: Antimalarial activity against chloroquine-sensitive Plasmodium falciparum D6 by lactate dehydrogenase assay; assay type: functional, organism-based
[8] = test system: Cryptococcus neoformans; experiment: Antifungal activity against Cryptococcus neoformans by broth microdilution assay; assay type: functional, organism-based
[9] = test system: KB; experiment: Cytotoxicity against human KB cells by neutral red uptake assay; assay type: cell-based
[10] = test system: Staphylococcus aureus; experiment: Antibacterial activity against methicillin-resistant Staphylococcus aureus up to 20 ug/ml; assay type: functional, organism-based
[11] = test system: Mycobacterium intracellulare; experiment: Antibacterial activity against Mycobacterium intracellulare up to 20 ug/ml; assay type: functional, organism-based
[12] = test system: Staphylococcus aureus; experiment: Antibacterial activity against Staphylococcus aureus; assay type: functional, organism-based
[13] = test system: SK-MEL; experiment: Cytotoxicity against human SK-MEL cells by neutral red uptake assay; assay type: cell-based
[14] = test system: Plasmodium berghei; experiment: Antimalarial activity against Plasmodium berghei infected in mouse assessed as reduction in parasitemia at 100 mg/kg/day, po for 4 days measured up to day 14; assay type: functional
[15] = test system: Plasmodium falciparum; experiment: Antimalarial activity against chloroquine-resistant Plasmodium falciparum W2 by lactate dehydrogenase assay; assay type: functional, organism-based
[16] = test system: Vero; experiment: Cytotoxicity against African green monkey Vero cells by neutral red uptake assay; assay type: cell-based; conditions: Chlorocebus sabaeus
[17] = test system: Leishmania donovani; experiment: Antileishmanial activity against Leishmania donovani promastigotes by Alamar Blue assay; assay type: functional, organism-based
[18] = test system: Aspergillus fumigatus; experiment: Antifungal activity against Aspergillus fumigatus by broth microdilution assay; assay type: functional, organism-based
[19] = test system: Nakaseomyces glabratus; experiment: Antifungal activity against Candida glabrata by broth microdilution assay; assay type: functional, organism-based
[20] = test system: Staphylococcus aureus; experiment: Antibacterial activity against methicillin-resistant Staphylococcus aureus; assay type: functional, organism-based
[21] = test system: Escherichia coli; experiment: Antibacterial activity against Escherichia coli; assay type: functional, organism-based
[22] = test system: Mycobacterium intracellulare; experiment: Antibacterial activity against Mycobacterium intracellulare; assay type: functional, organism-based
[23] = Inhibition of beta-hematin formation after 16 hrs; assay type: physicochemical
[24] = test system: Candida albicans; experiment: Antifungal activity against Candida albicans by broth microdilution assay; assay type: functional, organism-based
[25] = test system: SK-OV-3; experiment: Cytotoxicity against human SKOV3 cells by neutral red uptake assay; assay type: cell-based
[26] = test system: Plasmodium berghei; experiment: Antimalarial activity against Plasmodium berghei infected in mouse assessed as reduction in parasitemia at 25 mg/kg/day, po for 4 days measured up to day 60 relative to control; assay type: functional; parameters: scale not given: the % may be the effect or the level left
[27] = test system: Plasmodium berghei; experiment: Antimalarial activity against Plasmodium berghei infected in mouse assessed as reduction in parasitemia at 100 mg/kg/day, po for 4 days measured up to day 60 relative to control; assay type: functional; parameters: scale not given: the % may be the effect or the level left
[28] = test system: Plasmodium berghei; experiment: Antimalarial activity against Plasmodium berghei infected in mouse assessed as reduction in parasitemia at 50 mg/kg/day, po for 4 days measured up to day 60 relative to control; assay type: functional; parameters: scale not given: the % may be the effect or the level left
[29] = test system: Plasmodium berghei; experiment: Antimalarial activity against Plasmodium berghei infected in mouse assessed as reduction in parasitemia at 10 mg/kg/day, po for 4 days measured up to day 7; assay type: functional, organism-based
[30] = Plasmodium falciparum, D6, read-out: IC50
[31] = Plasmodium falciparum, W2, read-out: IC50

Row | Compound | selectivity ratio [1] | selectivity ratio [2] | IC50 [3] [µg/mL] | IC50 [4] [µg/mL] | Activity [5] | Activity [6] | IC50 [8] [µg/mL] | MFC [8] [µg/mL] | MIC [8] [µg/mL] | IC50 [9] [µg/mL] | IC50 [13] [µg/mL] | Activity [14] | IC50 [16] [µg/mL] | IC50 [17] [µg/mL] | IC90 [17] [µg/mL] | Activity [18] | Activity [19] | Activity [21] | IC50 [23] [µM] | Activity [24] | further results
1 | C[C@@H]1CC[C@H]2[C@@H](C)C(=O)O[C@@H]3O[C@@]4(C)CC[C@@H]1[C@]32OO4 [ARTEMISININ] | 2640 | 1560 |  |  |  |  |  |  |  |  |  |  |  |  |  |  |  |  |  |  | 
2 | CCCCOc1c(OC)cc(NC(C)CCCNC(C)CCCNC(C)CCCN)c2nccc(CC)c12.Cl (configuration not stated) | > 41 | > 44 | > 23.8 | > 23.8 | inactive | inactive | 12.1 | 20 | 20 | > 23.8 | > 23.8 | inactive | > 23.8 | 14 | 32 | inactive | inactive | inactive | 19.7 | inactive | IC50 [7, 30]: 0.54 µg/mL; Activity [10]: inactive; Activity [11]: inactive; IC50 [12]: 12 µg/mL; MBC [12]: 20 µg/mL; MIC [12]: 20 µg/mL; IC50 [15, 31]: 0.58 µg/mL; IC50 [20]: > 20 µg/mL; IC50 [22]: > 20 µg/mL; IC50 [25]: > 23.8 µg/mL
3 | N=C(N)c1ccc(OCCCCCOc2ccc(C(=N)N)cc2)cc1 [PENTAMIDINE] |  |  |  |  |  |  |  |  |  |  |  |  |  |  | 3.8 (≈ 11.2 µM) |  |  |  |  |  | 
4 | COc1cc(NC(C)CCCNC(C)CCCNC(C)CCCNC(C)CCCN)c2nc(C(C)(C)C)ccc2c1.Cl (configuration not stated) | > 42.5 | > 34 | > 23.8 | > 23.8 | inactive | inactive | 10 | 20 | 20 | > 23.8 | > 23.8 | 100% | > 23.8 | 1.6 | 7.3 | inactive | inactive | inactive | 10.2 | inactive | IC50 [7, 30]: 0.7 µg/mL; IC50 [15, 31]: 0.56 µg/mL; Activity [26]: 100%; Activity [27]: 100%; Activity [28]: 100%; Activity [29]: Active; IC50 [20]: 10 µg/mL; MBC [20]: 20 µg/mL; MIC [20]: 20 µg/mL; IC50 [22]: 15 µg/mL; MBC [22]: 20 µg/mL; MIC [22]: 20 µg/mL; IC50 [25]: > 23.8 µg/mL
5 | COc1cc(NC(C)CCCNC(C)CCCN)c2nc(C(C)(C)C)ccc2c1.Cl (configuration not stated) | > 198 | > 125 | > 23.8 | > 23.8 | inactive | inactive | 10 | 20 | 20 | > 23.8 | > 23.8 | 100% | > 23.8 | 2.8 | 7.2 | inactive | inactive | inactive | 7.5 | inactive | IC50 [7, 30]: 0.19 µg/mL; Activity [11]: inactive; IC50 [15, 31]: 0.12 µg/mL; Activity [26]: 100%; Activity [27]: 100%; Activity [28]: 100%; Activity [29]: Active; IC50 [20]: 6.5 µg/mL; MBC [20]: 20 µg/mL; MIC [20]: 10 µg/mL; IC50 [25]: > 23.8 µg/mL
6 | CCCCCOc1c(OC)cc(NC(C)CCCNC(C)CCCN)c2nccc(CC)c12.Cl (configuration not stated) | > 132 | > 45.7 | > 23.8 | > 23.8 | inactive | inactive | 5.8 | 10 | 10 | > 23.8 | > 23.8 | inactive | > 23.8 | 3.7 | 7 | inactive | inactive | inactive | 9.6 | inactive | IC50 [7, 30]: 0.52 µg/mL; Activity [11]: inactive; IC50 [12]: 13.6 µg/mL; MBC [12]: 20 µg/mL; MIC [12]: 20 µg/mL; IC50 [15, 31]: 0.18 µg/mL; IC50 [20]: 13.4 µg/mL; MBC [20]: 20 µg/mL; MIC [20]: 20 µg/mL; IC50 [22]: > 20 µg/mL; IC50 [25]: > 23.8 µg/mL
7 | CCCCCOc1c(OC)cc(NC(C)CCCNC(C)CCCNC(C)CCCNC(C)CCCN)c2nccc(CC)c12.Cl (configuration not stated) | > 56.6 | > 54 | > 23.8 | > 23.8 | inactive | inactive | 5.6 | 10 | 10 | > 23.8 | > 23.8 | inactive | > 23.8 | 3.1 | 7 | inactive | inactive | inactive | 11.2 | inactive | IC50 [7, 30]: 0.44 µg/mL; Activity [11]: inactive; IC50 [12]: 9.8 µg/mL; MBC [12]: 20 µg/mL; MIC [12]: 20 µg/mL; IC50 [15, 31]: 0.42 µg/mL; IC50 [20]: 11 µg/mL; MBC [20]: 20 µg/mL; MIC [20]: 20 µg/mL; IC50 [22]: 17.8 µg/mL; MIC [22]: 20 µg/mL; IC50 [25]: > 23.8 µg/mL
8 | CCCCCOc1c(OC)cc(NC(C)CCCNC(C)CCCNC(C)CCCN)c2nccc(CC)c12.Cl (configuration not stated) | > 49.5 | > 41.7 | > 23.8 | > 23.8 | inactive | inactive | 5.5 | 10 | 10 | > 23.8 | > 23.8 | inactive | > 23.8 | 3.5 | 7 | inactive | inactive | inactive | 20.8 | inactive | IC50 [7, 30]: 0.57 µg/mL; Activity [11]: inactive; IC50 [12]: 8.6 µg/mL; MBC [12]: 20 µg/mL; MIC [12]: 20 µg/mL; IC50 [15, 31]: 0.48 µg/mL; IC50 [20]: 9.5 µg/mL; MBC [20]: 20 µg/mL; MIC [20]: 20 µg/mL; IC50 [22]: 16.6 µg/mL; MIC [22]: 20 µg/mL; IC50 [25]: > 23.8 µg/mL
9 | CCCCOc1c(OC)cc(NC(C)CCCNC(C)CCCNC(C)CCCNC(C)CCCN)c2nccc(CC)c12.Cl (configuration not stated) | > 68 | > 48.5 | > 23.8 | > 23.8 | inactive | inactive | 8 | 20 | 20 | > 23.8 | > 23.8 | inactive | > 23.8 | 3.2 | 7 | inactive | inactive | inactive | 10.7 | inactive | IC50 [7, 30]: 0.49 µg/mL; Activity [10]: inactive; Activity [11]: inactive; IC50 [12]: 13.6 µg/mL; MBC [12]: 20 µg/mL; MIC [12]: 20 µg/mL; IC50 [15, 31]: 0.35 µg/mL; IC50 [20]: 13.2 µg/mL; MIC [20]: 20 µg/mL; IC50 [22]: 15 µg/mL; IC50 [25]: > 23.8 µg/mL
10 | CCN(CC)CCCC(C)Nc1ccnc2cc(Cl)ccc12 (configuration not stated) [CHLOROQUINE] |  |  |  |  |  |  |  |  |  |  |  |  |  |  |  |  |  |  | 80 |  | 
11 | C[C@@H]1[C@H](O)[C@@H](C)/C=C/C=C/C=C/C=C/C=C/C=C/C=C/[C@H](O[C@@H]2O[C@H](C)[C@@H](O)[C@H](N)[C@@H]2O)C[C@@H]2O[C@](O)(C[C@@H](O)C[C@@H](O)[C@H](O)CC[C@@H](O)C[C@@H](O)CC(=O)O[C@H]1C)C[C@H](O)[C@H]2C(=O)O [AMPHOTERICIN B] |  |  |  |  |  |  |  | 1.5 (≈ 1.62 µM) |  |  |  |  |  |  | 0.35 (≈ 0.379 µM) |  |  |  |  |  | MFC [19]: 0.625 µg/mL (≈ 0.676 µM); MIC [19]: 0.31 µg/mL (≈ 0.335 µM)
12 | COc1cc(NC(C)CCCNC(C)CCCNC(C)CCCN)c2nc(C(C)(C)C)ccc2c1.Cl (configuration not stated) |  |  | > 23.8 | > 23.8 | inactive | inactive | 7.5 | 20 | 20 | > 23.8 | > 23.8 | 100% | > 23.8 | 1.6 | 4 | inactive | inactive | inactive | > 1000 | inactive | IC50 [7]: Not Active; Activity [10]: inactive; IC50 [15]: Not Active; Activity [26]: 100%; Activity [27]: 100%; Activity [28]: 100%; Activity [29]: Active; IC50 [22]: 9 µg/mL; MBC [22]: 20 µg/mL; MIC [22]: 20 µg/mL; IC50 [25]: > 23.8 µg/mL
